Where “and” joins values, the source holds several entries; their conditions need not be identical. Equal values may be shown once. Toxic doses and inconclusive results are not listed. Rule as the data show it: active = T/C of 150% or more; inactive = T/C below 125%. Peptide text beside a SMILES is read from it. * marks the point of attachment. Cbz = O=C(OCc1ccccc1)*
Tested on: L1210 leukemia ip in BDF1 mice, survival T/C
Assay: NCI In Vivo Anticancer Drug Screen. Data for tumor model L1210 Leukemia (intraperitoneal) in B6D2F1 (BDF1) mice
Conditions: endpoint: mean survival time, higher = longer survival
Method in brief: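 Read-out is survival time, reported as the treated-group measurement over the vehicle-control measurement.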

[1] = dose: 100.0 mg/kg/injection, schedule: Q01DX009 (ip), vehicle: saline with Tween-80
[2] = dose: 100.0 mg/kg/injection, schedule: Q04DX003 (ip), vehicle: saline with Tween-80
[3] = dose: 200.0 mg/kg/injection, schedule: Q01DX009 (ip), vehicle: saline with Tween-80
[4] = dose: 200.0 mg/kg/injection, schedule: Q04DX003 (ip), vehicle: saline with Tween-80
[5] = dose: 400.0 mg/kg/injection, schedule: Q04DX003 (ip), vehicle: saline with Tween-80
[6] = dose: 100.0 mg/kg/injection, schedule: Q01DX009 (ip), vehicle: Klucel (hydroxypropylcellulose) (HPC)
[7] = dose: 100.0 mg/kg/injection, schedule: Q04DX003 (ip), vehicle: Klucel (hydroxypropylcellulose) (HPC)
[8] = dose: 200.0 mg/kg/injection, schedule: Q01DX009 (ip), vehicle: Klucel (hydroxypropylcellulose) (HPC)
[9] = dose: 200.0 mg/kg/injection, schedule: Q04DX003 (ip), vehicle: Klucel (hydroxypropylcellulose) (HPC)
[10] = dose: 400.0 mg/kg/injection, schedule: Q01DX009 (ip), vehicle: Klucel (hydroxypropylcellulose) (HPC)
[11] = dose: 400.0 mg/kg/injection, schedule: Q04DX003 (ip), vehicle: Klucel (hydroxypropylcellulose) (HPC)
[12] = dose: 50.0 mg/kg/injection, schedule: Q01DX001 (ip), vehicle: saline
[13] = dose: 100.0 mg/kg/injection, schedule: Q01DX001 (ip), vehicle: saline
[14] = dose: 200.0 mg/kg/injection, schedule: Q01DX001 (ip), vehicle: saline
[15] = dose: 400.0 mg/kg/injection, schedule: Q01DX001 (ip), vehicle: saline
[16] = dose: 100.0 mg/kg/injection, schedule: Q04DX002 (ip), vehicle: Klucel (hydroxypropylcellulose) (HPC)
[17] = dose: 200.0 mg/kg/injection, schedule: Q04DX002 (ip), vehicle: Klucel (hydroxypropylcellulose) (HPC)
[18] = dose: 400.0 mg/kg/injection, schedule: Q04DX002 (ip), vehicle: Klucel (hydroxypropylcellulose) (HPC)
[19] = dose: 100.0 mg/kg/injection, schedule: Q04DX003 (ip), vehicle: saline
[20] = dose: 200.0 mg/kg/injection, schedule: Q04DX003 (ip), vehicle: saline
[21] = dose: 400.0 mg/kg/injection, schedule: Q04DX003 (ip), vehicle: saline
[22] = dose: 100.0 mg/kg/injection, schedule: Q01DX001 (ip), vehicle: carboxymethylcellulose (CMC)
[23] = dose: 200.0 mg/kg/injection, schedule: Q01DX001 (ip), vehicle: carboxymethylcellulose (CMC)
[24] = dose: 400.0 mg/kg/injection, schedule: Q01DX001 (ip), vehicle: carboxymethylcellulose (CMC)

Measured: T/C

Cc1cc(C)c(NS(=O)(=O)c2ccccc2)c(C)n1
inactive: [1] 98 % of control and 100 % of control | [2] 96 % of control | [3] 91 % of control and 92 % of control | [4] 100 % of control | dose: 400.0 mg/kg/injection, schedule: Q01DX009 (ip), vehicle: saline with Tween-80 96 % of control and 97 % of control | [5] 96 % of control

CCCCNC(=O)Nc1ccc(OC)cc1Cl
inactive: [6] 102 % of control | [7] 90 % of control | [8] 106 % of control | [9] 97 % of control | [10] 87 % of control | [11] 92 % of control

O=C(O)C(Oc1ccc(Cl)cc1)c1ccc(Cl)cc1 (stereo not drawn)
inactive: [7] 96 % of control | [9] 91 % of control

CCC[N+](C)(C)CC
inactive: dose: 37.5 mg/kg/injection, schedule: Q01DX001 (ip), vehicle: saline 104 % of control | dose: 75.0 mg/kg/injection, schedule: Q01DX001 (ip), vehicle: saline 95 % of control

COC1OC(CO)C(O)C1n1cnc2c(SC)ncnc21 (stereo not drawn)
inactive: dose: 100.0 mg/kg/injection, schedule: Q04DX002 (ip), vehicle: saline 107 % of control | dose: 200.0 mg/kg/injection, schedule: Q04DX002 (ip), vehicle: saline 104 % of control

CCOC(=O)CN1C(=O)NC(C)(c2ccc(Cl)cc2)C1=O (stereo not drawn)
inactive: [2] 106 % of control | [4] 98 % of control | [5] 96 % of control

COc1nc(=O)n(C2OC(CO)C(O)C2O)cc1F (stereo not drawn)
inactive: [12] 95 % of control | [13] 90 % of control | [14] 93 % of control | [15] 90 % of control

Clc1ccc(/C=N/Nc2nnc(N/N=C/c3ccc(Cl)cc3)c3ccccc23)cc1
inactive: [12] 95 % of control | [13] 101 % of control | [14] 101 % of control | [15] 95 % of control

O=C(Nc1ccc(C2=NCCN2)cc1)c1ccc(N=Nc2ccc(C(=O)Nc3ccc(C4=NCCN4)cc3)cc2)cc1
inactive: dose: 125.0 mg/kg/injection, schedule: Q01DX Z (ip), vehicle: water 106 % of control | dose: 250.0 mg/kg/injection, schedule: Q01DX Z (ip), vehicle: water 107 % of control

O=C(/C=C/c1cccc([N+](=O)[O-])c1)CCl
inactive: dose: 25.0 mg/kg/injection, schedule: Q04DX003 (ip), vehicle: saline with Tween-80 110 % of control | dose: 50.0 mg/kg/injection, schedule: Q04DX003 (ip), vehicle: saline with Tween-80 105 % of control | [2] 103 % of control and 104 % of control

Cc1ccc(NC(=O)Oc2c(C)cccc2C)c([N+](=O)[O-])c1
inactive: dose: 50.0 mg/kg/injection, schedule: Q01DX009 (ip), vehicle: Klucel (hydroxypropylcellulose) (HPC) 93 % of control | [6] 87 % of control

COc1ccnc2ccc(C)c([N+](=O)[O-])c12
inactive: dose: 100.0 mg/kg/injection, schedule: Q04DX003 (ip), vehicle: other 96 % of control | dose: 200.0 mg/kg/injection, schedule: Q04DX003 (ip), vehicle: other 90 % of control

Cc1cccc(OCCOC(=O)Nc2ccccc2F)c1
inactive: [6] 103 % of control | [8] 93 % of control | [10] 106 % of control

OC(c1nc2ccccc2[nH]1)C(O)C(O)C(O)c1nc2ccccc2[nH]1 (stereo not drawn)
inactive: [13] 105 % of control | [16] 100 % of control | [14] 96 % of control | [17] 87 % of control | [15] 86 % of control | [18] 97 % of control

N#Cc1ccc2c(c1)C([P+](c1ccccc1)(c1ccccc1)c1ccccc1)c1ccccc1-2 (stereo not drawn)
inactive: dose: 75.0 mg/kg/injection, schedule: Q01DX001 (ip), vehicle: carboxymethylcellulose (CMC) 88 % of control | dose: 300.0 mg/kg/injection, schedule: Q01DX001 (ip), vehicle: carboxymethylcellulose (CMC) 92 % of control

O=S(=O)(Cc1ccccc1)/C(=C\c1ccccc1)c1ccccc1
inactive: [12] 105 % of control | [13] 105 % of control | [14] 105 % of control | [15] 103 % of control

CCOC(=S)SCCSC(=S)OCC
inactive: [13] 105 % of control | [14] 100 % of control | [15] 97 % of control

COc1c2occc2c(OC)c2c(=O)cc(/C=C/c3ccncc3)oc12
inactive: [13] 97 % of control | [14] 94 % of control | [15] 101 % of control

COc1cc(/C=N\N=C(/C)c2ccc(C)cc2C)cc(OC)c1OC
inactive: dose: 100.0 mg/kg/injection, schedule: Q04DX002 (ip), vehicle: saline with Tween-80 88 % of control | dose: 200.0 mg/kg/injection, schedule: Q04DX002 (ip), vehicle: saline with Tween-80 92 % of control

CCOC(=O)c1ccc(NC(=O)Nc2c(C)n(C)n(-c3ccccc3)c2=O)cc1
inactive: [13] 87 % of control | [1] 89 % of control | [19] 89 % of control | [14] 90 % of control | [3] 86 % of control | [20] 89 % of control | [15] 92 % of control | [21] 90 % of control

COc1ccc(OC)c(NC(=O)NNC(=O)c2ccc(Cl)cc2)c1
inactive: dose: 25.0 mg/kg/injection, schedule: Q01DX009 (ip), vehicle: saline with Tween-80 95 % of control | dose: 50.0 mg/kg/injection, schedule: Q01DX009 (ip), vehicle: saline with Tween-80 94 % of control | [1] 92 % of control

CSCCC(NC(=O)C(CO)NC(=O)OCc1ccccc1)C(=O)O (stereo not drawn) (Cbz-Ser-Met-OH; configuration not given here)
inactive: [7] 96 % of control | [9] 97 % of control | [11] 96 % of control

NC(=S)S.[Zn+2]
inactive: dose: 13.3 mg/kg/injection, schedule: Q01DX Z (ip), vehicle: methylcellulose (MC) 96 % of control | dose: 20.0 mg/kg/injection, schedule: Q01DX Z (ip), vehicle: methylcellulose (MC) 90 % of control | dose: 30.0 mg/kg/injection, schedule: Q01DX Z (ip), vehicle: methylcellulose (MC) 90 % of control

O=c1ccn(Cc2ccccc2)cn1
inactive: [19] 106 % of control | [20] 104 % of control | [21] 98 % of control

S=c1[nH]c2cc(Cl)ccc2s1
inactive: [16] 93 % of control | [17] 96 % of control | [18] 86 % of control

C=CCNC(=S)NCc1cccc2ccccc12
inactive: [6] 98 % of control | [8] 111 % of control | [10] 88 % of control

CN(C)C(=O)Oc1c(Cl)c(Cl)c(OC(=O)N(C)C)c(Cl)c1Cl
inactive: [16] 94 % of control | [17] 105 % of control | [18] 90 % of control

COc1ccc(-c2ccccc2C(=O)O)cc1
inactive: [22] 107 % of control | [23] 96 % of control | [24] 100 % of control

C[N+](C)(C)CCOC(=O)CCC(=O)OCC[N+](C)(C)C
inactive: dose: 1.56 mg/kg/injection, schedule: Q01DX009 (ip), vehicle: saline 94 % of control | dose: 3.12 mg/kg/injection, schedule: Q01DX009 (ip), vehicle: saline 94 % of control

CCC[N+]1=C(/C=C/c2ccc3cccnc3c2O)C(C)(C)c2ccccc21
inactive: [22] 95 % of control | [23] 98 % of control | [24] 93 % of control

From PubChem BioAssay AID248 (DTP/NCI, 2004)
